Measurements taken from patent US10744128B2, “6-(5-membered heteroaryl)isoquinolin-3-yl-(5-membered heteroaryl) carboxamides and preparation and use thereof” (Samumed, LLC, priority 2017, dated 2020).
pEC50: −log10 of the molar value.

How the values were obtained:
recombinant GSK3β kinase = recombinant GSK3β kinase (Homo sapiens (Human), UniProt P49841); experiment: GSK3β kinase assay (Ser/Thr 09 peptide Z-lyte, FRET); assay type: biochemical; conditions: GSK3β kinase, 46 μM ATP, one hour; method calls values IC50
recombinant GSK3β kinase, sequence (P49841 whole entry): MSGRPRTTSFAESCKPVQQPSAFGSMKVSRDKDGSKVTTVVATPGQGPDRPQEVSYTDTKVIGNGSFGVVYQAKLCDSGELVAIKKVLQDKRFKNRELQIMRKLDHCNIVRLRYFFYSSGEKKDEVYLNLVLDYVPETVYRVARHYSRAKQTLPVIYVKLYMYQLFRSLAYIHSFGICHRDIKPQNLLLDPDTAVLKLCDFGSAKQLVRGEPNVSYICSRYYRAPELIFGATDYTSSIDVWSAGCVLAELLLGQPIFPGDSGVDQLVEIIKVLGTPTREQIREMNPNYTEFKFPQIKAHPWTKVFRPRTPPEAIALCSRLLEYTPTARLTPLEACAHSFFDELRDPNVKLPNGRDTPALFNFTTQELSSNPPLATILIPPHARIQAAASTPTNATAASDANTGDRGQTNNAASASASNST

[1] = biological target: recombinant DYRK1A kinase (Homo sapiens (Human), UniProt Q13627); experiment: DYRK1A kinase assay (Ser/Thr 18 peptide Z-lyte, FRET); conditions: DYRK1A kinase, 30 μM ATP, one hour; method calls values IC50
[2] = system: primary human fibroblasts derived from IPF patients (LL29 cells), α-smooth muscle actin; experiment: Inhibition of fibrotic process: αSMA in TGF-β1 treated LL29 fibroblasts; assay type: cell-based; conditions: for pEC50: LL29 cells, TGF-β1 20 ng/mL, 4 days, % cells positive for αSMA; for inhibition at 10 µM: read-out: percent inhibition at 10 μM
Summary of the method: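 LL29 fibroblasts from IPF patients, in F12 medium with 1% FBS, treated with TGF-β1 plus compound; TGF-β1 with DMSO as positive control, DMSO alone as negative control. After 4 days' incubation, SYTOX green nucleic acid stain added at 1 μM final, 30 min at room temperature.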

IL-6 = IL-6 inhibition in LPS-stimulated human peripheral blood mononuclear cells (HTRF); assay type: cell-based; conditions: for pEC50: huPBMCs, LPS 50 ng/mL, 22 hours, IL-6 HTRF; for inhibition at 10 µM: read-out: percent inhibition at 10 μM
Summary of the method: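 Fresh human PBMCs at 1×10e6 cells/mL in 1% FBS-RPMI were pretreated with compound for 2 h, then stimulated with 50 ng/mL E. coli 0111:B4 LPS for a further 22 h at 37 °C. IL-6 was measured by HTRF (665/620 nm ratio). Values were normalized to DMSO and fitted 4-parameter for EC50.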

[3] = system: Wnt-responsive promoter (Sp5-Luc reporter) in SW480 colon carcinoma cells; experiment: Sp5-Luc reporter gene screening assay for Wnt activity in SW480 cells; assay type: cell-based, human; conditions: 36 to 48 hours, luminescence
Summary of the method: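 SW480 cells stably carrying a luciferase reporter under an Sp5 promoter with eight TCF/LEF sites, plated at 4,000 cells/well in DMEM with 1% FBS and incubated 36 to 48 hours at 37° C. Luminescence normalized to DMSO-only cells; EC50 fitted by four-parameter nonlinear regression.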

[4] = system: SW480 colon carcinoma cells; experiment: Cell viability assay (CellTiter-Glo) in SW480 cells; assay type: cell-based, human; conditions: four days

Molecule | pEC50 (recombinant GSK3β kinase) | pEC50 [1] | pEC50 (IL-6; Homo sapiens, PBMC) | pEC50 ([3]; Homo sapiens) | pEC50 ([4]; Homo sapiens, 96 h) | pEC50 (IL-6) | pEC50 [3] | pEC50 [4] | pEC50 ([2]; Homo sapiens, Fibroblast, 96 h) | inhibition at 10 µM (IL-6; Homo sapiens, PBMC) | inhibition at 10 µM ([2]; Homo sapiens, Fibroblast) | pEC50 [2]
Cc1nnc(-c2ccc3cnc(NC(=O)c4coc(C5CCN(C)CC5)n4)cc3c2)s1 [Compound 69, N-(6-(5-Methyl-1,3,4-thiadiazol-2-yl)isoquinolin-3-yl)-2-(1-methylpiperidin-4-yl)oxazole-4-carboxamide] | 5.17 | 6.28 | < 5.00 | 5.67 | 5.89 |  |  |  | < 5.00 | 2.3% | 43.9% | 
Cn1cc(-c2ccc3cnc(NC(=O)c4csc(C5CCNCC5)n4)cc3c2)cn1 [Compound 25, N-(6-(1-Methyl-1H-pyrazol-4-yl)isoquinolin-3-yl)-2-(piperidin-4-yl) thiazole-4-carboxamide] | 5.51 | 7.41 | 5.59 | 6.26 | 6.06 |  |  |  | 5.92 |  |  | 
Cc1ncc(-c2ccc3cnc(NC(=O)c4cnn(C)c4)cc3c2)n1C [Compound 60, N-(6-(1,2-Dimethyl-1H-imidazol-5-yl)isoquinolin-3-yl)-1-methyl-1H-pyrazole-4-carboxamide] | 5.40 | 8.40 | 5.80 | 6.92 | 6.39 |  |  |  | 6.11 |  |  | 
Cc1csc(C(=O)Nc2cc3cc(-c4cncn4C)ccc3cn2)n1 [Compound 56, 4-Methyl-N-(6-(1-methyl-1H-imidazol-5-yl)isoquinolin-3-yl)thiazole-2-carboxamide] | 5.00 | 8.30 | 5.05 | 5.64 | 5.51 |  |  |  | 5.50 |  |  | 
Cn1cnc(C(=O)Nc2cc3cc(-c4cncn4C)ccc3cn2)n1 [Compound 52, 1-Methyl-N-(6-(1-methyl-1H-imidazol-5-yl)isoquinolin-3-yl)-1H-1,2,4-triazole-3-carboxamide] | 5.30 | 8.05 | < 5.00 | 5.66 | 5.44 |  |  |  | < 5.00 | 1.1% | 33.8% | 
N-(6-(1-(Methyl-d3)-1H-pyrazol-4-yl)isoquinolin-3-yl)-2-(1-methylpiperidin-4-yl)oxazole-4-carboxamide [Compound 17] | 5.53 | 7.80 |  |  |  | 5.21 | 6.95 | 6.89 |  |  |  | 6.76
CC(C)n1cc(C(=O)Nc2cc3cc(-c4cncn4C(C)C)ccc3cn2)cn1 [Compound 70, 1-Isopropyl-N-(6-(1-isopropyl-1H-imidazol-5-yl)isoquinolin-3-yl)-1H-pyrazole-4-carboxamide] | 5.15 | 8.05 | 5.80 | 6.94 | 6.88 |  |  |  | 6.60 |  |  | 
CN1CCN(c2nc(C(=O)Nc3cc4cc(-c5cnn(C)c5)ccc4cn3)cs2)CC1 [Compound 26, N-(6-(1-Methyl-1H-pyrazol-4-yl)isoquinolin-3-yl)-2-(4-methylpiperazin-1-yl)thiazole-4-carboxamide] | 5.66 | 8.52 | < 5.00 | 5.76 | 5.47 |  |  |  | 5.33 | 40.3% |  | 
Cc1nnc(-c2ccc3cnc(NC(=O)c4cn(C5CCN(C)CC5)nn4)cc3c2)s1 [Compound 67, N-(6-(5-Methyl-1,3,4-thiadiazol-2-yl)isoquinolin-3-yl)-1-(1-methylpiperidin-4-yl)-1H-1,2,3-triazole-4-carboxamide] | 5.63 | 7.51 | < 5.00 | 6.33 | 6.05 |  |  |  | 5.36 | 8.3% |  | 

The remaining molecules from weak to strong by pEC50 (recombinant GSK3β kinase), led by results:

pEC50 (recombinant GSK3β kinase) | pEC50 [1] | pEC50 (IL-6; Homo sapiens, PBMC) | pEC50 ([3]; Homo sapiens) | pEC50 ([4]; Homo sapiens, 96 h) | pEC50 (IL-6) | pEC50 [3] | pEC50 [4] | Molecule | pEC50 ([2]; Homo sapiens, Fibroblast, 96 h) | inhibition at 10 µM (IL-6; Homo sapiens, PBMC) | inhibition at 10 µM ([2]; Homo sapiens, Fibroblast) | pEC50 [2]
5.66 | 7.74 | < 5.00 | 5.99 | 5.43 |  |  |  | CN1CCN(c2nc(C(=O)Nc3cc4cc(-c5cnn(C)c5)ccc4cn3)co2)CC1 [Compound 23, N-(6-(1-Methyl-1H-pyrazol-4-yl)isoquinolin-3-yl)-2-(4-methylpiperazin-1-yl)oxazole-4-carboxamide] | 6.49 | 5.5% |  | 
5.72 | 7.74 | 5.19 | 5.67 | 5.43 |  |  |  | CC(C)c1nc(C(=O)Nc2cc3cc(-c4cncn4C)ccc3cn2)co1 [Compound 54, 2-Isopropyl-N-(6-(1-methyl-1H-imidazol-5-yl)isoquinolin-3-yl)oxazole-4-carboxamide] | 5.49 |  |  | 
5.78 | 8.70 | 5.96 | 7.41 | 6.98 |  |  |  | Cn1cc(-c2ccc3cnc(NC(=O)c4cnn(C5CCN(C6CC6)CC5)c4)cc3c2)cn1 [Compound 9, 1-(1-cyclopropylpiperidin-4-yl)-N-(6-(1-methyl-1H-pyrazol-4-yl)isoquinolin-3-yl)-1H-pyrazole-4-carboxamide] | < 5.00 |  | 33.4% | 
5.87 | 6.74 | < 5.00 | 6.26 | 5.79 |  |  |  | CC(C)N1CCC(c2nc(C(=O)Nc3cc4cc(-c5cn(C)nn5)ccc4cn3)co2)CC1 [Compound 38, 2-(1-Isopropylpiperidin-4-yl)-N-(6-(1-methyl-1H-1,2,3-triazol-4-yl)isoquinolin-3-yl)oxazole-4-carboxamide] | < 5.00 | 5.3% | 3.9% | 
5.87 | 8.70 | 6.55 | 7.46 | 7.14 |  |  |  | CC(C)n1cnc(C(=O)Nc2cc3cc(-c4cncn4C)ccc3cn2)c1 [Compound 49, 1-Isopropyl-N-(6-(1-methyl-1H-imidazol-5-yl)isoquinolin-3-yl)-1H-imidazole-4-carboxamide] | 7.07 |  |  | 
5.90 | 7.82 | < 5.00 | 5.98 | 5.41 |  |  |  | CN(C)C1CN(c2nc(C(=O)Nc3cc4cc(-c5cnn(C)c5)ccc4cn3)co2)C1 [Compound 18, 2-(3-(Dimethylamino)azetidin-1-yl)-N-(6-(1-methyl-1H-pyrazol-4-yl)isoquinolin-3-yl)oxazole-4-carboxamide] | 6.32 | 9% |  | 
6.01 | 8.15 | 5.02 | 5.95 | 5.51 |  |  |  | Cc1coc(C(=O)Nc2cc3cc(-c4cncn4C)ccc3cn2)n1 [Compound 55, 4-Methyl-N-(6-(1-methyl-1H-imidazol-5-yl)isoquinolin-3-yl)oxazole-2-carboxamide] | 5.42 |  |  | 
6.47 | 7.62 | 5.58 | 6.98 | 6.75 |  |  |  | CN1CCC(c2nc(C(=O)Nc3cc4cc(-c5cn(C)nn5)ccc4cn3)co2)CC1 [Compound 37, N-(6-(1-Methyl-1H-1,2,3-triazol-4-yl)isoquinolin-3-yl)-2-(1-methylpiperidin-4-yl)oxazole-4-carboxamide] | 6.61 |  |  | 
6.53 | 8.00 | 5.68 | 6.95 | 6.51 |  |  |  | CC(C)N1CCC(n2cc(C(=O)Nc3cc4cc(-c5cn(C)nn5)ccc4cn3)nn2)CC1 [Compound 35, 1-(1-Isopropylpiperidin-4-yl)-N-(6-(1-methyl-1H-1,2,3-triazol-4-yl)isoquinolin-3-yl)-1H-1,2,3-triazole-4-carboxamide] | 6.20 |  |  | 
